Measured values as given in ChEMBL document CHEMBL5390201, “The Natural Alkaloid (-)-N-Hydroxyapiosporamide Suppresses Colorectal Tumor Progression as an NF-κB Pathway Inhibitor by Targeting the TAK1-TRAF6 Complex” (J Nat Prod, 2023).
Active and inactive are the calls of the source. The rule behind the calls is not given here.

Tests used:
[1] = molecular target: T1, Nuclear factor NF-kappa-B complex (Homo sapiens) (UniProt Q00653+P19838+Q04206); assay: Inhibition of TNF-alpha induced NFkappaB activation in human HCT-116 cells assessed as downregulation of A20 gene expression pretreated for 24 hrs followed by TNFalpha stimulation and measured after 2 hrs by quantitative RT-PCR analysis; type: cell-based; details: dose 1-10 µM, time 26.0 hrs
T1 sequence (P19838 whole entry, looked up): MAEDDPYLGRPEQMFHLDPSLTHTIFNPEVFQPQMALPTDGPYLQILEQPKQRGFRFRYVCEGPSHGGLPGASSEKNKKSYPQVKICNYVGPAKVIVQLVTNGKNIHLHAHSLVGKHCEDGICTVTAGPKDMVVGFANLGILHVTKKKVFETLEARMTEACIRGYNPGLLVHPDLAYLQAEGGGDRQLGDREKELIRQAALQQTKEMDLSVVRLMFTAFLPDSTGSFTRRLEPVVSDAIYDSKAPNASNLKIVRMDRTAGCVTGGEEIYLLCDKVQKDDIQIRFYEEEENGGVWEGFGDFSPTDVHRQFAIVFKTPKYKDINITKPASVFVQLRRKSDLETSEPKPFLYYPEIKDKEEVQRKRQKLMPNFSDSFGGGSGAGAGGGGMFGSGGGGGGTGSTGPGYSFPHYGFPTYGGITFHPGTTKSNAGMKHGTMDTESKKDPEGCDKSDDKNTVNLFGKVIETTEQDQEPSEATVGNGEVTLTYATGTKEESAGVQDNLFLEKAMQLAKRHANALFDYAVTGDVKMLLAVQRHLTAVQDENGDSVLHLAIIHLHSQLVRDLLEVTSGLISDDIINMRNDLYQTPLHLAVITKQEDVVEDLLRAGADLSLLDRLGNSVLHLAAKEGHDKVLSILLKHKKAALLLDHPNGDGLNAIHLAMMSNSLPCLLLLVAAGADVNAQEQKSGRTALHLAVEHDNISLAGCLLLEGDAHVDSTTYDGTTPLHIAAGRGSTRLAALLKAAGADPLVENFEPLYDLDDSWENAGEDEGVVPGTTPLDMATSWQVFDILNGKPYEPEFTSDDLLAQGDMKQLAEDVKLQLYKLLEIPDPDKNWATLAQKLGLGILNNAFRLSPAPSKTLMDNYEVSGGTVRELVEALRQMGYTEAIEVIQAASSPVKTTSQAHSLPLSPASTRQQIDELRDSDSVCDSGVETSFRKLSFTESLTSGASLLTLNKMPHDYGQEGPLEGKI
T1 sequence (Q00653 whole entry, looked up): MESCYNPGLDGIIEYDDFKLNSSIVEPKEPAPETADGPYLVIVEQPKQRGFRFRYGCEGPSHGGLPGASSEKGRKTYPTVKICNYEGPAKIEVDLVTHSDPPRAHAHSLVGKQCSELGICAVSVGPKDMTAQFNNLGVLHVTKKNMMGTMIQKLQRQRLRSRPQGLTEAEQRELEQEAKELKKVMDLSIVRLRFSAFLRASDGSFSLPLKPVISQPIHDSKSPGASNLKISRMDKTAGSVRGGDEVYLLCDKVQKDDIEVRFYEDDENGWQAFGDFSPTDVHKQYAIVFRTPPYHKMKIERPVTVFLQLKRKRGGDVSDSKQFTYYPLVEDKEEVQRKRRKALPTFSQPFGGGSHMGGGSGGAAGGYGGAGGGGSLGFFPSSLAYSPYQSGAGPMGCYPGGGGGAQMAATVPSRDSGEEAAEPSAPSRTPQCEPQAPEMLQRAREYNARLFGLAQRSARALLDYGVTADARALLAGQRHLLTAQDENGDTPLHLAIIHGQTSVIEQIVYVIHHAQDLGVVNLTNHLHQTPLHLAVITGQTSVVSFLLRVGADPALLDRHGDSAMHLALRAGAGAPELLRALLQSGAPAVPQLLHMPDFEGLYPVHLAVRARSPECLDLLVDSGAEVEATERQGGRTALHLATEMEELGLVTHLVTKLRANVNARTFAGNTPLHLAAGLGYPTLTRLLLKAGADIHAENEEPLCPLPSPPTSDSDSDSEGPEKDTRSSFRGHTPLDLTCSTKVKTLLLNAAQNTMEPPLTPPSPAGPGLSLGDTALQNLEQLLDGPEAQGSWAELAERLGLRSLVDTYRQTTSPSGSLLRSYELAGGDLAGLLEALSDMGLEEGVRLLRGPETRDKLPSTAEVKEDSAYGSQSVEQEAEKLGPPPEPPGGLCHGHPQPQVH
T1 sequence (Q04206 whole entry, looked up): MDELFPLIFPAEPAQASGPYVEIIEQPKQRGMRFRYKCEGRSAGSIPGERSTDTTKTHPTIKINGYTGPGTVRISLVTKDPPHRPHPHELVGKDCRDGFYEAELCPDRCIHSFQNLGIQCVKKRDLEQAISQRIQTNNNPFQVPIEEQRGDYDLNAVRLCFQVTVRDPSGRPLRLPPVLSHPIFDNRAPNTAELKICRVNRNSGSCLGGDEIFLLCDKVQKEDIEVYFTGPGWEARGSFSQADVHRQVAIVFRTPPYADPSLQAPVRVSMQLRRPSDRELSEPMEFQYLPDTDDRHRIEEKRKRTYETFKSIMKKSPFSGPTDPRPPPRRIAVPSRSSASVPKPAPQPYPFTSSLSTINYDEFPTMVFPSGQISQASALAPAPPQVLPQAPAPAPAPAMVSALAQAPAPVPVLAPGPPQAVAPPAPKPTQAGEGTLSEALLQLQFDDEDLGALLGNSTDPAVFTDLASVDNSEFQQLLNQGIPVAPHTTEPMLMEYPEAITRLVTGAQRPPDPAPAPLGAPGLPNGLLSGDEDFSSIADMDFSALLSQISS

[2] = system: HCT-116; assay: Induction of autophagy in human HCT-116 cells assessed as increase in LC3 protein expression at 1 to 10 uM incubated for 24 hrs by Western blot analysis; type: functional, cell-based; details: dose 1-10 µM
[3] = molecular target: T1, Nuclear factor NF-kappa-B complex (Homo sapiens); assay: Inhibition of TNF-alpha induced NFkappaB activation in human HCT-116 cells assessed as downregulation of E-selectin gene expression pretreated for 24 hrs followed by TNFalpha stimulation and measured after 2 hrs by quantitative RT-PCR analysis; type: cell-based; details: dose 1-10 µM, time 26.0 hrs
[4] = Toxicity in athymic nude BALB/c mouse xenografted with human HCT-116 cells assessed as pathological changes in spleen at 5 to 15 mg/kg, ip administered every other day and measured after 14 days by hematoxylin and eosin staining-based microscopic analysis; type: organism-based; details: in vivo, 336 h, dose 5-15 mg/kg, time 14 day
[5] = system: Mus musculus; assay: Anti-inflammatory activity in AOM/DSS-induced BALB/c mouse model inflammatory bowel disease assessed as reduction in tumor number at 5 to 10 mg/kg, ip pretreated with AOM for 7 days further replaced with DSS for 7 days and repeated for 2 times followed by every 2 days compound treatment for […] starting from day 50 and measured once a week; type: functional, organism-based; details: dose 5-10 mg/kg, time 21.0 day
[6] = system: HCT-116; assay: Induction of apoptosis in human HCT-116 cells assessed as early apoptotic cells at 5 uM preincubated with Z-VAD-FMK for 1 hr followed by compound addition and measured after 24 hrs by Annexin V-FITC/PI staining based flow cytometric analysis (reference value: 4.75 %); type: functional
[7] = system: HT-29; assay: Induction of autophagic cell death in human HT-29 cells at 1 to 10 uM pretreated with 3-methyladenine for 1 hr followed by compound addition and measured after 24 hrs by SRB assay; type: functional, cell-based; details: dose 1-10 µM
[8] = system: HT-29; assay: Induction of cell cycle arrest in human HT-29 cells assessed as accumulation of cells at G2/M phase at 5 uM by RNase/PI staining based flow cytometry analysis (reference value: 9.93 %); type: functional
[9] = system: HCT-116; assay: Induction of apoptosis in human HCT-116 cells assessed as viable cells at 5 uM incubated for 24 hrs by Annexin V-FITC/PI staining based flow cytometric analysis (reference value: 88.8%); type: functional; details: read-out: Activity
[10] = system: HCT-116; assay: Induction of apoptosis in human HCT-116 cells assessed as viable cells at 0.25 uM incubated for 24 hrs by Annexin V-FITC/PI staining based flow cytometric analysis (reference value: 88.8%); type: functional; details: read-out: Activity
[11] = system: Mus musculus; assay: Anti-inflammatory activity in AOM/DSS-induced BALB/c mouse model inflammatory bowel disease assessed as reduction in transformation into adenocarcinoma at 10 mg/kg, ip pretreated with AOM for 7 days further replaced with DSS for 7 days and repeated for 2 times followed by every 2 days compound treatment for […] starting from day 50 by H and E staining based analysis; type: functional, organism-based; details: time 21.0 day
[12] = system: HT-29; assay: Induction of autophagic flux in human HT-29 cells assessed as increase in LC3 protein expression preincubated with 3-methyladenine for 1 hr followed by compound addition and measured after 24 hrs by Western blot analysis; type: functional, cell-based
[13] = system: HT-29; assay: Induction of apoptosis in human HT-29 cells assessed as necrotic cells at 0.25 uM incubated for 24 hrs by Annexin V-FITC/PI staining based flow cytometric analysis (reference value: 0.14 %); type: functional
[14] = system: HT-29; assay: Induction of autophagy in human HT-29 cells assessed as increase in LC3 protein expression at 1 to 10 uM incubated for 24 hrs by Western blot analysis; type: functional, cell-based; details: dose 1-10 µM
[15] = system: HT-29; assay: Induction of apoptosis in human HT-29 cells assessed as viable cells at 5 uM incubated for 24 hrs by Annexin V-FITC/PI staining based flow cytometric analysis (reference value: 88.3 %); type: functional; details: read-out: Activity
[16] = system: Mus musculus; assay: In vivo inhibition of NFkappaB activation in athymic BALB/c mouse xenografted with human HCT-116 cells assessed as reduction in A20 gene expression in tumor at 15 mg/kg, ip administered every other day and measured after 14 days by qRT-PCR analysis; type: functional, organism-based; details: time 14.0 day
[17] = molecular target: T1, Nuclear factor NF-kappa-B complex (Homo sapiens); assay: Inhibition of TNF-alpha induced NFkappaB activation in human HT-29 cells assessed as downregulation of E-selectin gene expression pretreated for 24 hrs followed by TNFalpha stimulation and measured after 2 hrs by quantitative RT-PCR analysis; type: cell-based; details: dose 1-10 µM, time 26.0 hrs
[18] = system: RAW264.7; assay: Inhibition of LPS-induced NFkappaB activation in mouse RAW264.7 cells assessed as inhibition of p65 phosphorylation preincubated for 24 hrs followed by LPS stimulation for 3 hrs by Western blot analysis; type: cell-based; details: dose 1-10 µM, time 27.0 hrs
[19] = molecular target: T1, Nuclear factor NF-kappa-B complex (Homo sapiens); assay: Inhibition of NFkappaB activation in HEK293T cells transfected with Flag-tagged TRAF2 and kappaB luciferase/pTK-renilla reporters at 2 uM incubated for 6 hrs by Dual Luciferase Reporter Assay; type: cell-based; details: HEK-293T
[20] = system: HT-29; assay: Induction of apoptosis in human HT-29 cells assessed as early apoptotic cells at 0.25 uM incubated for 24 hrs by Annexin V-FITC/PI staining based flow cytometric analysis (reference value: 5.29 %); type: functional
[21] = system: HT-29; assay: Induction of apoptosis in human HT-29 cells assessed as viable cells at 5 uM preincubated with Z-VAD-FMK for 1 hr followed by compound addition and measured after 24 hrs by Annexin V-FITC/PI staining based flow cytometric analysis (reference value: 88.5 %); type: functional; details: read-out: Activity
[22] = Toxicity in athymic nude BALB/c mouse assessed as change in serum ALT level at 5 to 15 mg/kg, ip administered every other day and measured after 14 days; type: organism-based; details: in vivo, 336 h, dose 5-15 mg/kg, time 14 day
[23] = system: Mus musculus; assay: In vivo inhibition of NFkappaB activation in athymic BALB/c mouse xenografted with human HCT-116 cells assessed as reduction in MCP-1 gene expression in tumor at 15 mg/kg, ip administered every other day and measured after 14 days by qRT-PCR analysis; type: functional, organism-based; details: time 14.0 day
[24] = molecular target: T1, Nuclear factor NF-kappa-B complex (Homo sapiens); assay: Inhibition of TNF-alpha induced NFkappaB activation in human HT-29 cells assessed as inhibition of IkappaBalpha degradation at 1 to 10 uM pretreated for 24 hrs followed by TNFalpha stimulation for 10 mins by Western blot analysis; type: cell-based; details: dose 1-10 µM, time 1450.0 min
[25] = system: HCT-116; assay: Induction of autophagic cell death in human HCT-116 cells at 1 to 10 uM pretreated with chloroquine for 1 hr followed by compound addition and measured after 24 hrs by SRB assay; type: functional, cell-based; details: dose 1-10 µM
[26] = system: HT-29; assay: Induction of apoptosis in human HT-29 cells assessed as viable cells at 5 uM incubated for 24 hrs by Annexin V-FITC/PI staining based flow cytometric analysis (reference value: 93 %); type: functional; details: read-out: Activity
[27] = system: HT-29; assay: Induction of apoptosis in human HT-29 cells assessed as viable cells at 1 uM incubated for 24 hrs by Annexin V-FITC/PI staining based flow cytometric analysis (reference value: 93 %); type: functional; details: read-out: Activity
[28] = system: HT-29; assay: Induction of apoptosis in human HT-29 cells assessed as necrotic cells at 5 uM incubated for 24 hrs by Annexin V-FITC/PI staining based flow cytometric analysis (reference value: 0.14 %); type: functional

C[C@@H]1CC[C@H]2[C@H](C(=O)c3c(O)c([C@@]4(O)CC[C@@H](O)[C@H]5O[C@H]54)cn(O)c3=O)[C@H](C)C=C[C@@H]2C1
inhibition [1]: Dose-Dependent Effect
Activity [2]: Active
inhibition [3]: Dose-Dependent Effect
Activity [4]: Non-Toxic
Activity [5]: Active
Activity [6]: 16.8%
Activity [7]: inactive
Activity [8]: 0.17%
viability at 5 µM [9]: 16.5%
viability at 0.25 µM [10]: 59.9%
Activity [11]: Active
Activity [12]: Active
Activity [13]: 0.1%
Activity [14]: Active
viability at 5 µM [15]: 49.5%
inhibition [16]: Active
inhibition [17]: Dose-Dependent Effect
inhibition [18]: Dose-Dependent Effect
inhibition [19]: Active
Activity [20]: 12.6%
viability at 5 µM [21]: 65.5%
Activity [22]: Non-Toxic
inhibition [23]: Active
inhibition [24]: Active
Activity [25]: inactive
viability at 5 µM [26]: 39.3%
viability at 1 µM [27]: 44.8%
Activity [28]: 0.22%
